The results in this text go back to patent US8377974B2 (Millennium Pharmaceuticals, Inc., priority 2004, dated 2013).

pIC50: −log10 of the molar value.

T1 sequence (P00742 235-488 limits assumed): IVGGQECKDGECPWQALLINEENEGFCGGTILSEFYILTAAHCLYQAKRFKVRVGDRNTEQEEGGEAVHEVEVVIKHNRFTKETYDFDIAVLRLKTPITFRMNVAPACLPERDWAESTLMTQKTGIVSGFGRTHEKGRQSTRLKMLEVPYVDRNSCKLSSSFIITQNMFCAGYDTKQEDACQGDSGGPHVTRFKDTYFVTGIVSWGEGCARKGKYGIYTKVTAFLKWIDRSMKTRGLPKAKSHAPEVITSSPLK
T1 sequence (P00742 41-179 partner limits assumed): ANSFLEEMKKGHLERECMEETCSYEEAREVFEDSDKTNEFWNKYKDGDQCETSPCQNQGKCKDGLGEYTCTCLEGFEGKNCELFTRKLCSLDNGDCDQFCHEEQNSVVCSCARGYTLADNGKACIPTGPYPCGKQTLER

The test has as its target T1, human plasma protein factor Xa (Homo sapiens, UniProt P00742).
T1 construct: measure proteolytic activity of the enzyme (factor Xa); purchased Haematologic Technologies (Essex Junction, Vt.); host or cells: human plasma
As to the kind of experiment: Factor Xa IC50 determination: cleavage of paranitroanilide substrate S-2765 in 96-well plates. The class given is biochemical. The settings on record: fXa 1 nM, S-2765 100 μM, Tris buffered saline pH 7.4, room temperature. The essentials: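 Human plasma factor Xa (1 nM) preincubated 5 min at room temperature with inhibitor (0.01 nM–10 μM final) in Tris-buffered saline pH 7.4 with 5 mM CaCl2, 0.1% BSA, 5% DMSO. S-2765 at 100 μM final; hydrolysis at 405 nm over 2 min. IC50 from 4-parameter fit of initial velocities.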
By pIC50 is commonly meant the negative decadic logarithm of the IC50, by convention in mol/L. A high value points to a small IC50. `O=C(NCC1CC(c2ccc(Nc3ccccc3)cc2)=NO1)c1ccc(Cl)s1` (centres unmarked) [Example 222, 5-Chloro-thiophene-2-carboxylic acid [3-(4-phenylamino-phenyl)-4,5-dihydro-isoxazol-5-ylmethyl]-amide] gave a pIC50 not above 6.30. For `O=C(NCC1CC(c2ccc(Nc3ccc(F)cc3)cc2)=NO1)c1ccc(Cl)s1` (centres unmarked) [Example 223, 5-Chloro-thiophene-2-carboxylic acid {3-[4-(4-fluoro-phenylamino)-phenyl]-4,5-dihydro-isoxazol-5-ylmethyl}-amide], the pIC50 is not above 6.30. Next, `O=C(NCC1CC(c2ccc(Nc3ccccn3)cc2)=NO1)c1ccc(Cl)s1` (centres unmarked) [Example 224, 5-Chloro-thiophene-2-carboxylic acid {3-[4-(pyridin-2-ylamino)-phenyl]-4,5-dihydro-isoxazol-5-ylmethyl}-amide]: not above 6.30; `O=C(NCC1CC(c2ccc(Nc3cccnc3)cc2)=NO1)c1ccc(Cl)s1` (centres unmarked) [Example 225, 5-Chloro-thiophene-2-carboxylic acid {3-[4-(pyridin-3-ylamino)-phenyl]-4,5-dihydro-isoxazol-5-ylmethyl}-amide]: not below 7.00. Next, `O=C(NCC1CC(c2ccc(Nc3ccncc3)cc2)=NO1)c1ccc(Cl)s1` (centres unmarked) [Example 226, 5-Chloro-thiophene-2-carboxylic acid {3-[4-(pyridin-4-ylamino)-phenyl]-4,5-dihydro-isoxazol-5-ylmethyl}-amide]: not below 7.00; `CN(c1ccncc1)c1ccc(C2=NOC(CNC(=O)c3ccc(Cl)s3)C2)cc1` (centres unmarked) [Example 227, 5-Chloro-thiophene-2-carboxylic acid {3-[4-(methyl-pyridin-4-yl-amino)-phenyl]-4,5-dihydro-isoxazol-5-ylmethyl}-amide]: not below 7.00. Next, `Cc1cc(Nc2ccc(C3=NOC(CNC(=O)c4ccc(Cl)s4)C3)cc2)ccn1` (centres unmarked) [Example 228, 5-Chloro-thiophene-2-carboxylic acid {3-[4-(2-methyl-pyridin-4-ylamino)-phenyl]-4,5-dihydro-isoxazol-5-ylmethyl}-amide]: not above 6.30; `O=C(NCC1CC(c2ccc(Nc3ccnc(Cl)c3)cc2)=NO1)c1ccc(Cl)s1` (centres unmarked) [Example 229, 5-Chloro-thiophene-2-carboxylic acid {3-[4-(2-chloro-pyridin-4-ylamino)-phenyl]-4,5-dihydro-isoxazol-5-ylmethyl}-amide]: 6.30 to 7.00; `O=C(NCC1CC(c2ccc(Nc3ccncn3)cc2)=NO1)c1ccc(Cl)s1` (centres unmarked) [Example 230, 5-Chloro-thiophene-2-carboxylic acid {3-[4-(pyrimidin-4-ylamino)-phenyl]-4,5-dihydro-isoxazol-5-ylmethyl}-amide]: 6.30 to 7.00. Turning to `CN(c1ccc(C2=NOC(CNC(=O)c3ccc(Cl)s3)C2)cc1)c1ccnc(N)n1` (centres unmarked) [Example 231, 5-Chloro-thiophene-2-carboxylic acid (3-{4-[(2-amino-pyrimidin-4-yl)-methyl-amino]-phenyl}-4,5-dihydro-isoxazol-5-ylmethyl)-amide], the pIC50 is not above 6.30. Then `CCn1nccc1Nc1ccc(C2=NOC(CNC(=O)c3ccc(Cl)s3)C2)cc1` (centres unmarked) [Example 232, 5-Chloro-thiophene-2-carboxylic acid {3-[4-(2-ethyl-2H-pyrazol-3-ylamino)-phenyl]-4,5-dihydro-isoxazol-5-ylmethyl}-amide], with not above 6.30. Then `Cn1ccc(Nc2ccc(C3=NOC(CNC(=O)c4ccc(Cl)s4)C3)cc2)n1` (centres unmarked) [Example 233, 5-Chloro-thiophene-2-carboxylic acid {3-[4-(1-methyl-1H-pyrazol-3-ylamino)-phenyl]-4,5-dihydro-isoxazol-5-ylmethyl}-amide], with 6.30 to 7.00; and `O=C(NCC1CC(c2ccc(N3CCOCC3)cc2)=NO1)c1ccc(Cl)s1` (centres unmarked) [Example 234, 5-Chloro-thiophene-2-carboxylic acid [3-(4-morpholin-4-yl-phenyl)-4,5-dihydro-isoxazol-5-ylmethyl]-amide], with not above 6.30; and `CN1CCN(c2ccc(C3=NOC(CNC(=O)c4ccc(Cl)s4)C3)cc2)CC1` (centres unmarked) [Example 235, 5-Chloro-thiophene-2-carboxylic acid {3-[4-(4-methyl-piperazin-1-yl)-phenyl]-4,5-dihydro-isoxazol-5-ylmethyl}-amide], with 6.30 to 7.00. Then `COC[C@H]1CCCN1c1ccc(C2=NOC(CNC(=O)c3ccc(Cl)s3)C2)cc1` (some centres unmarked) [Example 236, 5-Chloro-thiophene-2-carboxylic acid {3-[4-(2-methoxymethyl-pyrrolidin-1-yl)-phenyl]-4,5-dihydro-isoxazol-5-ylmethyl}-amide], with not above 6.30. Molecule `CN1CCC(Nc2ccc(C3=NOC(CNC(=O)c4ccc(Cl)s4)C3)cc2)CC1` (centres unmarked) [Example 237, 5-Chloro-thiophene-2-carboxylic acid {3-[4-(1-methyl-piperidin-4-ylamino)-phenyl]-4,5-dihydro-isoxazol-5-ylmethyl}-amide] had a pIC50 of 6.30 to 7.00.

On to `CN(C)CCN(C)c1ccc(C2=NOC(CNC(=O)c3ccc(Cl)s3)C2)cc1` (centres unmarked) [Example 238, 5-Chloro-thiophene-2-carboxylic acid (3-{4-[(2-dimethylamino-ethyl)-methyl-amino]-phenyl}-4,5-dihydro-isoxazol-5-ylmethyl)-amide], for which the pIC50 is 6.30 to 7.00. Next, `CN(C)CCCN(C)c1ccc(C2=NOC(CNC(=O)c3ccc(Cl)s3)C2)cc1` (centres unmarked) [Example 239, 5-Chloro-thiophene-2-carboxylic acid (3-{4-[(3-dimethylamino-propyl)-methyl-amino]-phenyl}-4,5-dihydro-isoxazol-5-ylmethyl)-amide]: not below 7.00; `O=C(NCC1CC(c2ccc(N3CCCC3=O)cc2)=NO1)c1ccc(Cl)s1` (centres unmarked) [Example 240, 5-Chloro-thiophene-2-carboxylic acid {3-[4-(2-oxo-pyrrolidin-1-yl)-phenyl]-4,5-dihydro-isoxazol-5-ylmethyl}-amide]: not below 7.00. Turning to `O=C(NCC1CC(c2ccc(N3CCCCC3=O)cc2)=NO1)c1ccc(Cl)s1` (centres unmarked) [Example 241, 5-Chloro-thiophene-2-carboxylic acid {3-[4-(2-oxo-piperidin-1-yl)-phenyl]-4,5-dihydro-isoxazol-5-ylmethyl}-amide], the pIC50 is 6.30 to 7.00. Next, `O=C(NCC1CC(c2ccc(N3CCN(C(=O)OCc4ccccc4)CC3=O)cc2)=NO1)c1ccc(Cl)s1` (centres unmarked) [Example 242, 4-[4-(5-{[(5-Chloro-thiophene-2-carbonyl)-amino]-methyl}-4,5-dihydro-isoxazol-3-yl)-phenyl]-3-oxo-piperazine-1-carboxylic acid benzyl ester]: not below 7.00. Molecule `O=C(NCC1CC(c2ccc(N3CCOCC3=O)cc2)=NO1)c1ccc(Cl)s1` (centres unmarked) [Example 243, 5-Chloro-thiophene-2-carboxylic acid {3-[4-(3-oxo-morpholin-4-yl)-phenyl]-4,5-dihydro-isoxazol-5-ylmethyl}-amide] gave a pIC50 not below 7.00. Then `O=C(NCC1CC(c2ccc(N3CCSCC3=O)cc2)=NO1)c1ccc(Cl)s1` (centres unmarked) [Example 244, 5-Chloro-thiophene-2-carboxylic acid {3-[4-(3-oxo-thiomorpholin-4-yl)-phenyl]-4,5-dihydro-isoxazol-5-ylmethyl}-amide], with 6.30 to 7.00.
